Where no end group is shown, it is not given here.
Legend:
eyes, retina = conditions: in vivo; cited from earlier work
Description: We previously screened out penetratin from several of the most commonly reported cell-penetrating peptides based on the ex vivo permeability in excised cornea and in vivo ocular distribution. In a subsequent study, we optimized wild-type penetratin via amino acid mutation to further improve its permeability, and obtained a series of derivative peptides, which could be used as potential ocular absorption enhancers with low toxicity. […] Therefore, we chose 89WP to ...

ARPE-19 cells [1] = assay: Intracellular co-localization, laser scanning confocal microscopy; format: cell-based, Human; conditions: ARPE-19, 1 µg/mL siRNA, serum-free medium, 4 h
Description: ARPE-19 cells in the logarithmic growth phase were seeded in confocal dishes with a density of 5000 cells/well and incubated for 24 h with 5% CO2 at 37 °C. After administration with various polyplexes at a final concentration of 1 µg/mL siRNA, the cells were further cultured in serum-free medium for 4 h. Then, the cells were washed with 0.2% (m/v) heparin sodium solution three times, fixed with 4% (m/v) paraformaldehyde solution for 5 min, stained with 1 µg/mL 4’,6-diamidino-2-phenylindole (DAPI) solution for 10 min, and moisturized with 50% (v/v) glycerol.

WERI-Rb-1 cells = assay: Cellular uptake pathway, dual-label flow cytometry with uptake inhibitors; format: cell-based, Human; conditions: WERI-Rb-1, inhibitors of Table S1, n = 3 (Figure S4)
Description: (§1) For quantitative analysis of cellular uptake of different formulations, ARPE-19 cells and WERI-Rb-1 cells in the logarithmic growth phase were inoculated in 12-well plates with 50,000 cells in each well (n = 3), as mentioned above. After being incubated with various formulations at a final concentration of 1 µg/mL siRNA, the cells were trypsinized with 0.25% trypsin-EDTA, collected in Eppendorf tubes, and centrifuged at 1000 rpm for 5 min. The precipitated cells were subsequently suspended, washed twice in 200 μL phosphate buffer saline (PBS), and analyzed using a flow cytometer (Beckman, Brea, CA, USA). The percentage of FAM-positive cells in total viable cells was defined as the uptake efficiency. The effects of various inhibitors on cellular uptake were also assessed.
(§2) Table S1. Cellular uptake inhibitors and their function mechanisms
(§3) Inhibitor Final Mechanism of action
(§4) Filipin 20 μg/mL Bind to cholesterol on the cell membrane and inhibit endocytosis
(§5) Mß-CD 300 μg/mL Deplete cholesterol and suppress endocytosis
(§6) Genistein 20 μg/mL Inhibit lipid raft/caveolae mediated endocytosis
(§7) Colchicine 20 μg/mL Inhibit pinocytosis by binding to tubulin to prevent microtubule
(§8) Dynasore 20 μg/mL Inhibit […] in clathrin -mediated endocytosis
(§9) Figure S1. Polyacrylamide gel electrophoresis of primary polyplexes siRNA/PA. The ratio is N/P
(§10) of 3rd generation PAMAM to siRNA. […]

ARPE-19 cells [2] = assay: as above; format: cell-based, Human; conditions: ARPE-19, inhibitors of Table S1, n = 3 (Figure S4)
Description: as §1, §2, §3, §4, §5, §6, §7, §8, §9, §10

Sequence	distribution in the eyes after topical instillation (eyes, retina)	internalization by cells (confocal observation) (ARPE-19 cells [1])	effect of uptake inhibitors on cellular uptake of single fluorescence-labeled material (WERI-Rb-1 cells)	effect of uptake inhibitors on cellular uptake of single fluorescence-labeled material (ARPE-19 cells [2])
RQIKIWFWWRRMKWKK [89WP]	showed more distribution in the eyes, especially in the retina	–	–	–
RQIKIWFWWRRMKWKK [89WP-FAM, 5-carboxyfluorescein-labeled 89WP]	–	could be well internalized by the cells and distributed around the nuclei	did not affect cellular uptake	did not affect cellular uptake
